The target of one assay is ER (Homo sapiens (Human), UniProt P03372). The assay can be described thus: In-cell western blot analysis of relative ER percentage (Compounds B1-B278). The settings on record: ER degradation, 16 hours, read-out: ICW DC50. In kind it is cell-based. How it is done: In-cell western blot analysis. Cells are seeded in multi-well plates (e.g., at 40,000 or 10,000 cells/well). Diluted compounds at certain concentration are added (final 0.5% DMSO) and cells are incubated for […] (e.g., 16 hours). Formaldehyde (e.g., PBS:FA=9:1) is added and followed by washing with PBS. The cells are blocked with Licor blocking buffer (Li-Cor). The relative ER percentage in treated cells are obtained by comparing the values of treated wells to those in untreated and DMSO-treated wells as 100%.
Sequence of ER (P03372 whole entry): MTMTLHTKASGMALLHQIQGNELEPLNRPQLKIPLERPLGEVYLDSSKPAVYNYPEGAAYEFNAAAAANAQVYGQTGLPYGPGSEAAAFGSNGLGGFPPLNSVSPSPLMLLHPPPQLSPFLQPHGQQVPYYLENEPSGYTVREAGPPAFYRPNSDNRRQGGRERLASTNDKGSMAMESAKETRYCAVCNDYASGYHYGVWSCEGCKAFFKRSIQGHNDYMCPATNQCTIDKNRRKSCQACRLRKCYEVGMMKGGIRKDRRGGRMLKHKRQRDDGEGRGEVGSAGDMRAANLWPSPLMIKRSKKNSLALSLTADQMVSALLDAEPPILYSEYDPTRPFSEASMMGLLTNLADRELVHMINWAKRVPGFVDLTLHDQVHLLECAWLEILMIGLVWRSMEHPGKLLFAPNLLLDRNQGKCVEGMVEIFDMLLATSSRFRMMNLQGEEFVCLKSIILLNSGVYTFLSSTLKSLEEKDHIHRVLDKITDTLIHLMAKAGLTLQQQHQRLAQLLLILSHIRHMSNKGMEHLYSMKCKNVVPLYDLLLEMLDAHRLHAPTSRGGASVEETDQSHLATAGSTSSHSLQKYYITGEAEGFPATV
In-cell western blot analysis. a. seed cells in black-sided/clear bottom 96- or 384-well plates at 40,000 or 10,000 cells/well, overnight; b. add diluted compounds (final 0.5% DMSO), 16 hours. 16 h later, remove medium, add 100 μL or 25 μL of 3.7-4.0% formaldehyde (PBS:FA=9:1), RT 20 min, no shaking; c. wash with PBS, and permeabilized with 100 μL or 25 μL/well of 1×PBS+0.1% Triton X-100 10 minutes; d. block with 100 μL or 25 μL Licor blocking buffer (Li-Cor), RT 1 h, moderate shaking; d. Add 100 μL or 25 μL of anti-ER (cs-8644, 1:500-1,000)+GAPDH(Millipore MAB374, 1:1000) in Block+0.05% Tween 20. RT 2 h, gentle shaking. Negative control: cells plus secondary antibodies (no primary antibodies); e. wash×4 with PBS +0.05-0.1% Tween 20, gentel shaking; f. anti-rabbit-680 and anti-mouse-800 (both 1:1000 in LiCor block +0.05% Tween20, RT 1 h, gentle shaking, no light. LI-COR: 0.2% to reduce background; g. wash×4 with PBS+0.05% Tween 20, gental shaking; h. add 100 μL or 25 μL of PBS to each well and read on CLX plate reader. The relative ER percentage in treated cells were obtained by comparing the values of treated wells to those in untreated and DMSO-treated wells as 100%.

Assay [1] is described as follows: Cell growth assay (WST-8) (Compounds B1-B278). In kind it is cell-based. Particulars: 96 h; T47D cell line; WST-8, 4 days; read-out: Cell Growth Inhibition in T47D cell line IC50. How it is done: Cell Growth Assay. The cells are seeded at certain concentration (e.g., at 1500/well) in multi-well plates overnight. Cells are subsequently treated with the compounds. A certain period of time (e.g., 4 days) after the compound treatment, 10% WST-8 reagent is added to the culture medium and incubate under certain condiction (e.g., in a CO2 incubator at 37° C. for 2.5 hours). The absorbance is measured on each sample using a microplate reader at certain wavelength (e.g., 450 nm). The relative absorbance is calculated against the vehicle control from three individually repeats.
Cell Growth Assay. The cells were seeded at 1500/well in 96 well plates overnight. One day after the seeding, they were treated with indicated doses of compounds respectively. 4 days after the compound treatment, 10% WST-8 reagent was added to the culture medium and incubate in a CO2 incubator at 37° C. for 2.5 hours. Before reading, the plate was mixed gently on an orbital shaker for one minute to ensure homogeneous distribution of color. The absorbance was measured of each sample using a microplate reader at a wavelength of 450 nm. The relative absorbance was calculated against the vehicle control from three individually repeats.
A general note: Formazan colour is commonly taken as a measure of viable cells.

Each structure is given as a SMILES string.

Usually DC50 stands for the concentration giving 50% degradation. Broadly, the IC50 is the concentration that gives 50% inhibition.

As to `C[C@@H]1Cc2c([nH]c3ccccc23)[C@@H](c2cnc(N3CCC(OCCN4CCN5c6cc7c(cc6OC[C@@H]5C4)C(=O)N([C@@H]4CCC(=O)NC4=O)C7)CC3)nc2)N1CC(F)F` [Compound B123, (R)-3-((S)-3-(2-((1-(5-((1R,3R)-2-(2,2-difluoroethyl)-3-methyl-2,3,4,9-tetrahydro-1H-pyrido[3,4-b]indol-1-yl)pyrimidin-2-yl)piperidin-4-yl)oxy)ethyl)-8-oxo-1,2,3,4,4a,5,8,10-octahydro-9H-pyrazino[1′,2′:4,5][1,4]oxazino[2,3-f]isoindol-9-yl)piperidine-2,6-dione], at ER, the DC50 lay within 10 to 100 nM. Moreover, in assay [1], the IC50 lay in the range of 1 to 10 nM.

With `C[C@@H]1Cc2c([nH]c3ccccc23)[C@@H](c2cnc(N3CC4(CCC(CN5CCN6c7ccc8c(c7N(C)C[C@@H]6C5)CN(C5CCC(=O)NC5=O)C8=O)CC4)C3)nc2)N1CC(F)F` (stereo partly drawn) [Compound B125, 3-((S)-7-((2-(5-((1R,3R)-2-(2,2-difluoroethyl)-3-methyl-2,3,4,9-tetrahydro-1H-pyrido[3,4-b]indol-1-yl)pyrimidin-2-yl)-2-azaspiro[3.5]nonan-7-yl)methyl)-4-methyl-1-oxo-3,4,5,5a,6,7,8,9-octahydropyrazino[1,2-a]pyrrolo[3,4-f]quinoxalin-2(1H)-yl)piperidine-2,6-dione], on ER, the DC50 lay within 10 to 100 nM. Also, the IC50 in assay [1] is greater than 10 nM.

With `C[C@@H]1Cc2c([nH]c3ccccc23)[C@@H](c2cnc(N3CCC4(CC3)CC(CN3CCN5c6ccc7c(c6N(C)C[C@@H]5C3)CN(C3CCC(=O)NC3=O)C7=O)C4)nc2)N1CC(F)F` (stereo partly drawn) [Compound B126, 3-((S)-7-((7-(5-((1R,3R)-2-(2,2-difluoroethyl)-3-methyl-2,3,4,9-tetrahydro-1H-pyrido[3,4-b]indol-1-yl)pyrimidin-2-yl)-7-azaspiro[3.5]nonan-2-yl)methyl)-4-methyl-1-oxo-3,4,5,5a,6,7,8,9-octahydropyrazino[1,2-a]pyrrolo[3,4-f]quinoxalin-2(1H)-yl)piperidine-2,6-dione], the DC50 on ER lay within 10 to 100 nM. In addition, the IC50 in assay [1] was greater than 10 nM.

Consider `C[C@@H]1Cc2c([nH]c3ccccc23)[C@@H](c2cnc(N3CCC(CN4CCC5(CCOc6c5ccc5c6CN(C6CCC(=O)NC6=O)C5=O)CC4)CC3)nc2)N1CC(F)F` (stereo partly drawn) [Compound B127, 3-(1-((1-(5-((1R,3R)-2-(2,2-difluoroethyl)-3-methyl-2,3,4,9-tetrahydro-1H-pyrido[3,4-b]indol-1-yl)pyrimidin-2-yl)piperidin-4-yl)methyl)-7′-oxo-2′,3′,7′,9′-tetrahydro-8′H-spiro[piperidine-4,4′-pyrano[2,3-e]isoindol]-8′-yl)piperidine-2,6-dione], for which, on ER, the DC50 lay within 10 to 100 nM. Moreover, in assay [1], the IC50 was in the range of 1 to 10 nM.

As to `COc1cc(N2CCC3(CCN(C(=O)CN4Cc5cc6c(cc5C4)C(=O)N(C4CCC(=O)NC4=O)C6=O)CC3)CC2)ccc1[C@@H]1c2[nH]c3ccccc3c2C[C@@H](C)N1CC(F)F` (stereo partly drawn) [Compound B128, 6-(2-(9-(4-((1R,3R)-2-(2,2-difluoroethyl)-3-methyl-2,3,4,9-tetrahydro-1H-pyrido[3,4-b]indol-1-yl)-3-methoxyphenyl)-3,9-diazaspiro[5.5]undecan-3-yl)-2-oxoethyl)-2-(2,6-dioxopiperidin-3-yl)-6,7-dihydropyrrolo[3,4-f]isoindole-1,3(2H,5H)-dione], on ER, the DC50 is less than 10 nM. Moreover, in assay [1], the IC50 was 1 to 10 nM.

For the compound `COc1cc(N2CC3(CCC(CN4CCC5(CC4)COc4c5ccc5c4CN(C4CCC(=O)NC4=O)C5=O)CC3)C2)ccc1[C@@H]1c2[nH]c3ccccc3c2C[C@@H](C)N1CC(F)F` (stereo partly drawn) [Compound B129, 3-(1′-((2-(4-((1R,3R)-2-(2,2-difluoroethyl)-3-methyl-2,3,4,9-tetrahydro-1H-pyrido[3,4-b]indol-1-yl)-3-methoxyphenyl)-2-azaspiro[3.5]nonan-7-yl)methyl)-6-oxo-6,8-dihydro-2H,7H-spiro[furo[2,3-e]isoindole-3,4′-piperidin]-7-yl)piperidine-2,6-dione], on ER, the DC50 lay in the range of 10 to 100 nM. Besides, in assay [1], the IC50 is less than 1 nM.

In the case of `COc1c2c(cc3c1CN(C1CCC(=O)NC1=O)C3=O)CN(CC(=O)N1CCC3(CC1)CCN(c1cc(F)c([C@@H]4c5[nH]c6ccccc6c5C[C@@H](C)N4CC(F)F)c(F)c1)CC3)C2` (stereo partly drawn) [Compound B130, 3-(6-(2-(9-(4-((1R,3R)-2-(2,2-difluoroethyl)-3-methyl-2,3,4,9-tetrahydro-1H-pyrido[3,4-b]indol-1-yl)-3,5-difluorophenyl)-3,9-diazaspiro[5.5]undecan-3-yl)-2-oxoethyl)-4-methoxy-1-oxo-3,5,6,7-tetrahydropyrrolo[3,4-f]isoindol-2(1H)-yl)piperidine-2,6-dione], on ER, the DC50 is 10 to 100 nM. In addition, in assay [1], the IC50 lay in the range of 1 to 10 nM.

Regarding `C[C@@H]1Cc2c([nH]c3ccccc23)[C@@H](c2cnc(N3CCC4(CC3)CC(CN3CCN5c6cc7c(cc6OC[C@@H]5C3)C(=O)N(C3CCC(=O)NC3=O)C7)C4)nc2)N1CC(F)F` (stereo partly drawn) [Compound B135, 3-((S)-3-((7-(5-((1R,3R)-2-(2,2-difluoroethyl)-3-methyl-2,3,4,9-tetrahydro-1H-pyrido[3,4-b]indol-1-yl)pyrimidin-2-yl)-7-azaspiro[3.5]nonan-2-yl)methyl)-8-oxo-1,2,3,4,4a,5,8,10-octahydro-9H-pyrazino[1′,2′:4,5][1,4]oxazino[2,3-f]isoindol-9-yl)piperidine-2,6-dione], on ER, the DC50 was less than 10 nM. Moreover, in assay [1], the IC50 was in the range of 1 to 10 nM.

In the case of `C[C@@H]1Cc2c([nH]c3ccccc23)[C@@H](c2cnc(N3CCC4(CCC(CN5CCN6c7cc8c(cc7OC[C@@H]6C5)C(=O)N(C5CCC(=O)NC5=O)C8)CC4)CC3)nc2)N1CC(F)F` (stereo partly drawn) [Compound B136, 3-((S)-3-((3-(5-((1R,3R)-2-(2,2-difluoroethyl)-3-methyl-2,3,4,9-tetrahydro-1H-pyrido[3,4-b]indol-1-yl)pyrimidin-2-yl)-3-azaspiro[5.5]undecan-9-yl)methyl)-8-oxo-1,2,3,4,4a,5,8,10-octahydro-9H-pyrazino[1′,2′:4,5][1,4]oxazino[2,3-f]isoindol-9-yl)piperidine-2,6-dione], at ER, the DC50 was in the range of 10 to 100 nM. Besides, in assay [1], the IC50 was greater than 10 nM.

With `C[C@@H]1Cc2c([nH]c3ccccc23)[C@@H](c2cnc(N3CCC4(CCC(CN5CCN6c7cc8c(cc7OC[C@@H]6C5)C(=O)N(C5CCC(=O)NC5=O)C8)CC4)CC3)nc2)N1CC(C)(C)F` (stereo partly drawn) [Compound B137, 3-((S)-3-((3-(5-((1R,3R)-2-(2-fluoro-2-methylpropyl)-3-methyl-2,3,4,9-tetrahydro-1H-pyrido[3,4-b]indol-1-yl)pyrimidin-2-yl)-3-azaspiro[5.5]undecan-9-yl)methyl)-8-oxo-1,2,3,4,4a,5,8,10-octahydro-9H-pyrazino[1′,2′:4,5][1,4]oxazino[2,3-f]isoindol-9-yl)piperidine-2,6-dione], the DC50 on ER lay within 10 to 100 nM. Also, the IC50 in assay [1] is greater than 10 nM.

Consider `C[C@@H]1Cc2c([nH]c3ccccc23)[C@@H](c2cnc(N3CCC4(CCC(N5CCN6c7cc8c(cc7OC[C@@H]6C5)C(=O)N(C5CCC(=O)NC5=O)C8)CC4)CC3)nc2)N1CC(F)F` (stereo partly drawn) [Compound B138, 3-((S)-3-(3-(5-((1R,3R)-2-(2,2-difluoroethyl)-3-methyl-2,3,4,9-tetrahydro-1H-pyrido[3,4-b]indol-1-yl)pyrimidin-2-yl)-3-azaspiro[5.5]undecan-9-yl)-8-oxo-1,2,3,4,4a,5,8,10-octahydro-9H-pyrazino[1′,2′:4,5][1,4]oxazino[2,3-f]isoindol-9-yl)piperidine-2,6-dione], for which the DC50 at ER was 10 to 100 nM. Besides, in assay [1], the IC50 lay within 1 to 10 nM.
